Patent publication US11413278B2, “Compounds and methods for promoting stress resistance” (priority 2015, dated 2022)
Where “and” joins values, the source holds several entries; their conditions need not be identical. Identical values can stand only once. Entries after “also recorded” stand apart in the source; their conditions may differ.

Key:
[1] = tested on: HTB-178 lung tumor cells (EGFR+, PIK3CA+, RB1−, TP53−); test: Killing effects on HTB-178 tumor cells; format: cell-based, human; details: for Potential killing effects on HTB-178 tumor cells, 1st / Potential killing effects on HTB-178 tumor cells, 2nd: Assay 1(y), at 10 uM
[2] = tested on: NRF2; test: in vitro; format: cell-based, human; details: for NRF2-dependency for H2O2-resistance, at 10 uM - with H2O2, 1st experiment: experiment 1 (1st); for NRF2-dependency for H2O2-resistance, at 10 uM - with H2O2, 2nd experiment: experiment 2 (2nd); for NRF2-dependency for H2O2-resistance, 1st experiment / NRF2-dependency for H2O2-resistance, 2nd experiment: with H2O2, NRF2 knockdown in WI-38 cells; for Assay 17: NRF2-dependency for H2O2-resistance: YES/NO; for NRF2-dependency of H2O2-resistance (NRF2 siRNA knockdown): at least 2 of 3 independent experiments; for viability of non-stressed cells, reduced by: human, 24 h
[3] = tested on: human protein targets; details: PubChem database queries; cited from earlier work
[4] = molecular target: T1, SENP6 (Homo sapiens, UniProt Q9GZR1); details: 2 screens; 10.0 μM or 12. μM; cited from earlier work
T1 sequence (Q9GZR1 1-1112): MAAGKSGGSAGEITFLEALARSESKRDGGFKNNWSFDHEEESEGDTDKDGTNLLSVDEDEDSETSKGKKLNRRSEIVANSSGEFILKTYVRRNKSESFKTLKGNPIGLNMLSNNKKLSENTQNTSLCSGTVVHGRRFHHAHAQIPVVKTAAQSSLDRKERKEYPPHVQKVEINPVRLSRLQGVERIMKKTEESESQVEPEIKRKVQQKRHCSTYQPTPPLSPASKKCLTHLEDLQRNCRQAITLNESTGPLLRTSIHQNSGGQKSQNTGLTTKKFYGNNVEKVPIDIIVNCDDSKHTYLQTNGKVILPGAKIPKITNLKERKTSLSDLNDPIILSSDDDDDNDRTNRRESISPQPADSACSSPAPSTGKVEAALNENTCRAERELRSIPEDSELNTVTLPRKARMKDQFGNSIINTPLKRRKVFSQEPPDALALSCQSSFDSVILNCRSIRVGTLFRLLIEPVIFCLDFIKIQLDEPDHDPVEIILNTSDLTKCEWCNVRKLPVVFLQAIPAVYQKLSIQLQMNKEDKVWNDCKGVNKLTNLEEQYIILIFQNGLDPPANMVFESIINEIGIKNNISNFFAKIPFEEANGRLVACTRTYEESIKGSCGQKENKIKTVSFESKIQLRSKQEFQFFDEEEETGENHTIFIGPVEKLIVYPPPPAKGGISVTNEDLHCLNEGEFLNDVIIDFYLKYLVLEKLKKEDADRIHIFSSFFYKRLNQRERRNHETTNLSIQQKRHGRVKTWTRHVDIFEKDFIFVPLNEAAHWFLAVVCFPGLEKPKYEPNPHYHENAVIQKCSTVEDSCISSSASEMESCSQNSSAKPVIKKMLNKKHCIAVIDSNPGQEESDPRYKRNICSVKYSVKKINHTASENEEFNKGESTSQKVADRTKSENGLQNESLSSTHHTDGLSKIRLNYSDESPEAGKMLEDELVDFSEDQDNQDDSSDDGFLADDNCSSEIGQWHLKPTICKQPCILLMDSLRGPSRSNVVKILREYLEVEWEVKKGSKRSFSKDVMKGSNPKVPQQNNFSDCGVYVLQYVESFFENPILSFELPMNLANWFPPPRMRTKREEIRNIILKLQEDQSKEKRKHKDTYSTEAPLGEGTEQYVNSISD

[5] = molecular target: T2, SENP8 (Homo sapiens, UniProt Q96LD8); details: Gr-1F: 3 screens, 10.0 μM to 12. μM; O13: 1 screen, 20. μM; cited from earlier work
T2 sequence (Q96LD8 1-212): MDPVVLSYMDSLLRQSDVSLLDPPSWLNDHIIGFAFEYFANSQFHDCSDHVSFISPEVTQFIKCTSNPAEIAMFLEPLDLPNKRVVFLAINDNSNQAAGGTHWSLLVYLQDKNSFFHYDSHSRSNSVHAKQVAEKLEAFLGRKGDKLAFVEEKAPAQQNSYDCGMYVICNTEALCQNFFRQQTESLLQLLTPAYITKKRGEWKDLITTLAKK

[6] = in vitro; format: cell-based, human; details: human
[7] = tested on: NFKBIA; details: two screens; read-out: NFKBIA induction, EC50; cited from earlier work
[8] = tested on: DNA; test: Comet assay (DNA damage); format: cell-based; details: preliminary analysis
[9] = tested on: two breast cancer-derived tumor cell lines; test: Viability of breast cancer-derived tumor cell lines; format: cell-based; details: 5 μM
[10] = 10 uM, YES = resistance reduced by at least 50%, partial = 25% to 50%

SMILES | Potential killing effects on HTB-178 tumor cells, 1st [1] | J = NRF2-dependency for H2O2-resistance ([2]; score) | J = NRF2-dependency for H2O2-resistance ([2]; summary score) | Potential targets: human protein targets (confirmed) [3] | Survival of NRF2 siRNA-transfected cells in the absence of H2O2 [2] | Assay 17: NRF2-dependency for H2O2-resistance ([2]; 10 uM) | NRF2-dependency of H2O2-resistance (NRF2 siRNA knockdown) [2] | viability of non-stressed cells, reduced by ([2]; 10 uM) | cytotoxicity at 24 h, 10 uM [6] | further results
Cc1ccc(S(=O)(=O)Nc2cccc3cccnc23)cc1 [Gr-3B] | YES; | 0 | 0 | ADRB2, AGTR1, APLNR, ARNT, BARD1, BRCA1, CCR6, CFTR, CHRM4,; also recorded: CXCR6, DRD3, EPAS1, GOPC, HIF1A, HTT, IL1B, MAP1LC3A, MDM2,; also recorded: MDM4, MITF, NFE2L2, NOD1, NOD2, NOD2, RR2E3, OPRD1, OPRK1,; also recorded: OPRM1, PRNP, RIPK2, S1PR1, S1PR4, SIX1, SLC12A5, SMAD3, TACC3,; also recorded: TARDBP, TDP1, TLR9, TNF |  |  |  |  |  | 
O=C(c1ccc([N+](=O)[O-])o1)N1CCc2ccccc21 [O13] | YES; | 0 | 0 | CASP3, DRD2, GMNN, HCRTR1, NR5A1, NR5A2, SENP6, SENP8, SSP1, and TDP1 |  |  |  |  |  | SENP6 inhibition [4]: ~50%; SENP8 inhibition [5]: ~50%
COc1cccc(/C=C2\CN(C)C/C(=C\c3cccc(OC)c3OC)C2=O)c1OC [O23] | YES; | 1 | 1 |  | could reduce the survival | YES | significantly attenuate | by 40%) | 40% | NRF2-dependency for H2O2-resistance, at 10 uM - with H2O2, 1st experiment ([2]; 10 uM): 1st, YES;; NRF2-dependency for H2O2-resistance, at 10 uM - with H2O2, 2nd experiment ([2]; 10 uM): 2nd, YES.; NRF2-dependency for H2O2-resistance, 1st experiment [2, 10]: YES;; NRF2-dependency for H2O2-resistance, 2nd experiment [2, 10]: YES.
O=[N+]([O-])c1ccccc1S(=O)(=O)Nc1cccc2cccnc12 [Gr-3A] |  | 0 | 0 | ADRBK1, APLNR, BARD1, BAZ2B, BRCA1, CCR6, DRD3, GMNN, IL1B,; also recorded: MDM2, MDM4, NFE2L2, NFKBIA, NOD1, NOD2, OPRK1, RBBP8, RELA,; also recorded: SIX1, SMAD3, TDP1 |  |  |  |  |  | EC50 [7]: 11 µM and 12 µM
O=C(/C(=C/c1ccc(Cl)cc1)c1nc2ccccc2[nH]1)c1ccccc1 [Gr-4D] | YES; | 0 | 0 | ABHD5, ATXN2, BARD1, BRCA, CFTR, CHRM1, CHRM4, CYP2C9, CYP3A4,; also recorded: DRD3, EPAS1, GMNN, GPR183, HIF1A, HNF4A, HTT, IDH1, IL1B, MAPT,; also recorded: MDM2, MDM4, MITF, NFKB1, NOD1, NOD2, PLIN5, RELA, SMAD3, TDP1,; also recorded: TNF, TNFRSF10B, TUBB |  |  | partially dependent on NRF2 |  |  | NRF2-dependency for H2O2-resistance, at 10 uM (experiment 3) - with & without H2O2 ([2]; 10 uM, experiment 3, with & without H2O2): Partial; NRF2-dependency for H2O2-resistance (experiment 3) ([2]; 10 uM, with & without H2O2, NRF2 knockdown in WI-38 cells, YES = resistance reduced by at least 50%, partial = 25% to 50%): Partial
Nc1ccccc1S(=O)(=O)Nc1cccc2cccnc12 [Gr-3C] |  | 0 | 0 | GAPDH, NFKBIA, RELA |  |  |  |  |  | EC50 [7]: 8.5 µM and 11 µM
Cc1ccc(NC(=O)c2ccc([N+](=O)[O-])o2)cc1C [Gr-1F] |  | 0 | 0 | CASP3, CFTR, GMNN, IDH1, IL1B, JAK2, SENP6, SENP7, SENP8, STAT1, and TDP1 |  |  |  | by 50%) | 50% | SENP6 inhibition [4]: ~80%; SENP8 inhibition [5]: 60%-80%
O=C(NCc1cccnc1)/C(=C/c1ccc(-c2ccc(Cl)cc2)o1)S(=O)(=O)c1ccccc1 [Gr-7C] |  | 1 | 1 | ABHD5, ADRB2, ATXN2, BARD1, BRCA1, CFTR, CHRM4, CYP2C19,; also recorded: EPAS1, GMNN, GPR183, HIF1A, HNF4A, IDH1, IL1B, KCNJ1, MDM2,; also recorded: MDM4, MITF, NCOA1, NCOA2, NCOA3, NFE2L2, NOD1, NOD2, NOD2,; also recorded: NPBWR1, NPSR1, NPY1R, NPY2R, NR2E3, NR2F2, NR5A1, NR5A2, PLIN5,; also recorded: RIPK2, S1PR1, S1PR2, TDP1, TNF, VDR | could reduce the survival | YES | significantly attenuate | by 60%) | 60% | NRF2-dependency for H2O2-resistance, at 10 uM - with H2O2, 1st experiment ([2]; 10 uM): 1st, YES;; NRF2-dependency for H2O2-resistance, 1st experiment [2, 10]: YES;
NS(=O)(=O)c1ccc(NC(=O)c2ccc([N+](=O)[O-])o2)cc1 [Gr-1A] | YES; | 1 | 1 |  | could reduce the survival | YES | significantly attenuate | by 30%) | 30% | NRF2-dependency for H2O2-resistance, at 10 uM - with H2O2, 2nd experiment ([2]; 10 uM): 2nd, partial.; NRF2-dependency for H2O2-resistance, 2nd experiment [2, 10]: partial
O=C(NCc1cccnc1)/C(=C\c1cccc(Oc2ccccc2)c1)S(=O)(=O)c1ccccc1 [Gr-7A] | YES; | 1 | 1 |  | could reduce the survival | YES | significantly attenuate | by 84%) | 84% | Fraction of damaged DNA with long comet tails [8]: significantly increased the fraction of damaged DNA with long comet tails; Assay 21: Potential killing effects on HTB-178 tumor cells ([1]; 10 uM, YES/NO): YES; Toxicity / viability of HTB-178 lung tumor cells ([1]; 10 μM, preliminary data): exerted more pronounced toxicity; also recorded: significantly reduce the viability; Potential killing effects on HTB-178 tumor cells, 2nd [1]: YES.; NRF2-dependency for H2O2-resistance, at 10 uM - with H2O2, 1st experiment ([2]; 10 uM): 1st, YES;; NRF2-dependency for H2O2-resistance, at 10 uM - with H2O2, 2nd experiment ([2]; 10 uM): 2nd, YES.; NRF2-dependency for H2O2-resistance, 1st experiment [2, 10]: YES;; NRF2-dependency for H2O2-resistance, 2nd experiment [2, 10]: YES.
CC1C(=O)C(C)C(c2cc(Cl)ccc2O)NC1c1cc(Cl)ccc1O (centres unmarked) [O6] | YES; | 0 | 0 | ADAM10, ADAM17, ATXN2, GLP1R, IDH1, IL1B, KCNE1, KCNQ1, NTSR1 |  |  |  |  |  | 
[O-][n+]1onc2c3nsnc3c(Br)cc21 [O17] | YES; | 0 | 0 |  |  |  |  |  |  | Potential killing effects on HTB-178 tumor cells, 2nd [1]: YES.; Cell viability in two breast cancer-derived tumor cell lines [9]: significantly reduce cell viability
